Patent US8470810B2, “Heterocyclic compounds suitable for treating disorders that respond to modulation of the dopamine D3 receptor” (Abbott GmbH & Co. KG, priority 2004, dated 2013)
Where a name gives a salt, the structure may show the parent alone.

What was measured:
[1] = target: T1, human dopamine D2L receptors (long isoform) (Homo sapiens, UniProt P14416); experiment: Dopamine D2L receptor binding, displacement of [125I] iodospiperone; details: membranes of HEK-293 cells stably expressing human D2L; 0.01 nM [125I] iodospiperone; 25° C., 60 minutes; read-out: Ki(D2)*
T1 construct: expressed in transfected cells
Procedure: (§1) The substance to be tested was either dissolved in methanol/Chremophor® (BASFAG) or in dimethyl sulfoxide and then diluted with water to the desired concentration.
(§2) Each assay mixture was run in triplicate.
The incubation buffer contained 50 mM tris, 120 mM NaCl, 5 mM KCl, 2 mM CaCl2, 2 mM MgCl2 and 0.1% bovine serum albumin. The buffer was adjusted to pH 7.4 with HCl.
(§3) After having been incubated at 25° C. for 60 minutes, the assay mixtures were filtered through a Whatman GF/B glass fiber filter under vacuum using a cell collecting device. The filters were transferred to scintillation viols using a filter transfer system. After 4 ml of Ultima Gold® (Packard) have been added, the samples were shaken for one hour and the radioactivity was then counted in a Beta-Counter (Packard, Tricarb 2000 or 2200CA). The cpm values were converted into dpm using a standard quench series and the program belonging to the instrument.
(§4) The inhibition curves were analyzed by means of iterative nonlinear regression analysis using the Statistical Analysis System (SAS) which is similar to the “LIGAND” program described by Munson and Rodbard.
(§5) The results of the receptro binding studies are expressed as receptor binding constants Ki(D2) and Ki(D3), respectively, as herein before described, and given in table 6.

[2] = target: T2, human dopamine D3 receptors (Homo sapiens, UniProt P35462); experiment: Dopamine D3 receptor binding, displacement of [125I]-iodosulpride; details: for Ki: membranes of HEK-293 cells stably expressing human D3, 0.1 nM [125I]-iodosulpride, 25° C., 60 minutes; for Ki(D2)*/Ki(D3)*: selectivity ratio of the receptor binding constants D2 over D3
T2 construct: expressed in transfected cells
Procedure: as §1, §2
The incubation buffer contained 50 mM tris, 120 mM NaCl, 5 mM KCl, 2 mM CaCl2, 2 mM MgCl2 and 0.1% bovine serum albumin, 10 μM quinolone and 0.1% ascorbic acid (prepared fresh daily). The buffer was adjusted to pH 7.4 with HCl.
as §3, §4, §5

T1 sequence (P14416 whole entry, canonical isoform): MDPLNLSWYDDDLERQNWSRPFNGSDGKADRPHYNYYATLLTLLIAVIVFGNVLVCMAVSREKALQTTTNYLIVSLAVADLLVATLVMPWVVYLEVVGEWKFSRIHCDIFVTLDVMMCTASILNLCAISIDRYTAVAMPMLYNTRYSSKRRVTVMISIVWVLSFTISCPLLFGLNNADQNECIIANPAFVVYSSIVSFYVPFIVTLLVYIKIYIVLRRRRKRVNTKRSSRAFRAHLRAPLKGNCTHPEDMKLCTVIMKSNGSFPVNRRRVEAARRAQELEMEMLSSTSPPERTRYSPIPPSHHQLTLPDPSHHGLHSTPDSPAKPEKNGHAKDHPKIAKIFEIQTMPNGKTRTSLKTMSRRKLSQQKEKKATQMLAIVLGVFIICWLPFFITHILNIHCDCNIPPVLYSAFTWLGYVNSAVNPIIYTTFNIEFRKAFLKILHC
T2 sequence (P35462 whole entry): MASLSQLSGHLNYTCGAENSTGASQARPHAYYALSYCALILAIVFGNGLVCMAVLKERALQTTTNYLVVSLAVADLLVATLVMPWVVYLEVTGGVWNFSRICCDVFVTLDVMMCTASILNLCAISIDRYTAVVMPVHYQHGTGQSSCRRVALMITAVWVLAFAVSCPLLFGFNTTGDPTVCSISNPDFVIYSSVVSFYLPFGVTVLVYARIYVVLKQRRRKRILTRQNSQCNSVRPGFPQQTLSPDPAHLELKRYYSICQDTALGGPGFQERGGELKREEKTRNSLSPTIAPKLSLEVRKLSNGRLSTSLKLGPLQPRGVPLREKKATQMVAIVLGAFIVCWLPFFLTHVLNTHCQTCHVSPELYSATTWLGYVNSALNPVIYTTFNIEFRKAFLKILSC

Ki [1]	Ki [2]	Ki(D2)*/Ki(D3)* [2]	SMILES
1280 nM	28.1 nM	46	CCCN1CC[C@@H](c2ccc(NS(=O)(=O)c3ccc(C(C)=O)cc3)cc2)C1 [Example 26, 4-Acetyl-N-[4-((S)-1-propyl-pyrrolidin-3-yl)-phenyl]-benzenesulfonamide]
7.1 nM	0.23 nM	30	CCCN1CC[C@@H](c2ccc(NS(=O)(=O)c3ccc(C4CC4)cc3)cc2)C1 [Example 27, 4-Cyclopropyl-N-[4-((S)-1-propyl-pyrrolidin-3-yl)-phenyl]-benzenesulfonamide]
133 nM	3.3 nM	41	CCCN1CC[C@@H](c2ccc(NS(=O)(=O)c3ccc(Br)s3)cc2)C1.Cl [Example 28, 5-Bromo-thiophene-2-sulfonic acid [4-((S)-1-propyl-pyrrolidin-3-yl)-phenyl]-amide hydrochloride]
27.3 nM	0.67 nM	41	C=C(C)c1ccc(S(=O)(=O)Nc2ccc([C@@H]3CCN(CCC)C3)cc2)s1 [Example 29, 5-Isopropenyl-thiophene-2-sulfonic acid [4-((S)-1-propyl-pyrrolidin-3-yl)-phenyl]-amide]
11.7 nM	0.28 nM	42	CCCc1ccc(S(=O)(=O)Nc2ccc([C@@H]3CCN(CCC)C3)cc2)cc1.Cl [Example 30, 4-Propyl-N-[4-((S)-1-propyl-pyrrolidin-3-yl)-phenyl]-benzenesulfonamide hydrochloride]
257 nM	10.8 nM	24	CCCN1CCC(c2ccc(NS(=O)(=O)c3ccc(C(C)C)cc3)cn2)C1 (centres unmarked) [Example 31, N-[6-(1-propyl-pyrrolidin-3-yl)-pyridin-3-yl]-4-isopropyl-benzene-sulfonamide]
5.47 nM	0.17 nM	33	CCCN1CC[C@@H](c2ccc(NS(=O)(=O)c3ccc(C(C)CC)cc3)cc2)C1.Cl (stereo partly drawn) [Example 33, 4-sec-Butyl-N-[4-((S)-1-propyl-pyrrolidin-3-yl)-phenyl]-benzenesulfonamide hydrochloride]
174 nM	5.1 nM	34	CCCN1CC[C@@H](c2ccc(NS(=O)(=O)c3cc(F)c(Br)cc3F)cc2)C1 [Example 34]
7.4 nM	0.3 nM	24	CCCN1CC[C@@H](c2ccc(NS(=O)(=O)c3ccc(CC(C)C)cc3)cc2)C1.Cl [Example 35, 4-Isobutyl-N-[4-((S)-1-propyl-pyrrolidin-3-yl)-phenyl]-benzenesulfonamide hydrochloride]
3.25 nM	0.15 nM	22	CCCN1CC[C@@H](c2ccc(NS(=O)(=O)c3ccc(C4CCCC4)cc3)cc2)C1 [Example 37, 4-Cyclopentyl-N-[4-(S)-1-propyl-pyrrolidin-3-yl)-phenyl]-benzenesulfonamide hydrochloride]
6.3 nM	0.29 nM	21	CC(C)c1ccc(S(=O)(=O)Nc2ccc([C@@H]3CCN(CCCF)C3)cc2)cc1 [Example 38, 4-Isopropyl-N-[4-((S)-1-(3-fluoro-propyl)-pyrrolidin-3-yl)-phenyl]-benzenesulfonamide]
18.2 nM	0.46 nM	40	CCCCOc1ccc(S(=O)(=O)Nc2ccc([C@@H]3CCN(CCC)C3)cc2)cc1 [Example 40, 4-Butyloxy-N-[4-((S)-1-propyl-pyrrolidin-3-yl)-phenyl]-benzenesulfonamide]
13.5 nM	0.44 nM	30	CCCN1CC[C@@H](c2ccc(NS(=O)(=O)c3ccc(C4CC4(F)F)cc3)cc2)C1 (stereo partly drawn) [Example 41, 4-(2,2-Difluorocyclopropyl)-N-[4-((S)-1-propyl-pyrrolidin-3-yl)-phenyl]-benzenesulfonamide]
1830 nM	49 nM	37	CCCN1CC(c2ccc(NS(=O)(=O)c3ccc(C(C)C)cc3)cn2)C1 [Example 46, 4-Isopropyl-N-[6-(1-propyl-azetidin-3-yl)-pyridin-3-yl]-benzenesulfonamide]
137 nM	2.1 nM	65	CCCN1CC(c2ccc(NS(=O)(=O)c3ccc(C(C)C)cc3)cc2)C1 [Example 48, 4-Isopropyl-N-[4-(1-propyl-azetidin-3-yl)-phenyl]-benzene sulfonamide]
1810 nM	46 nM	39	CCCN1CC(c2ccc(NS(=O)(=O)c3ccc(OC(F)(F)F)cc3)cc2)C1 [Example 49, N-[4-(1-Propyl-azetidin-3-yl)-phenyl]-4-trifluoromethoxybenzene sulfonamide]
5.85 nM	0.41 nM	14	CC(C)c1ccc(S(=O)(=O)Nc2ccc([C@@H]3CCN(CCCO)C3)cc2)cc1 [Example 53, N-{4-[(S)-1-(3-Hydroxy-propyl)-pyrrolidin-3-yl]-phenyl}-4-isopropyl-benzenesulfonamide]
8.73 nM	0.32 nM	27	CCCN1CC[C@@H](c2ccc(NS(=O)(=O)c3ccc(C4CCC4)cc3)cc2)C1 [Example 54, 4-Cyclobutyl-N-[4-((S)-1-propyl-pyrrolidin-3-yl)-phenyl]-benzenesulfonamide]
1170 nM	7.11 nM	165	CCCN1CC(c2ccc(NS(=O)(=O)c3ccc(-c4cnco4)cc3)cc2)C1 [Example 55, 4-Oxazol-5-yl-N-[4-(1-propyl-azetidin-3-yl)-phenyl]-benzenesulfonamide]
2660 nM	24.4 nM	109	CCCN1CC(c2ccc(NS(=O)(=O)c3ccc(CCF)cc3)cc2)C1 [Example 56, 4-(2-Fluoro-ethyl)-N-[4-(1-propyl-azetidin-3-yl)-phenyl]-benzenesulfonamide]
880 nM	7.18 nM	123	CCCN1CC(c2ccc(NS(=O)(=O)c3ccc(CCCF)cc3)cc2)C1 [Example 57, 4-(3-Fluoro-propyl)-N-[4-(1-propyl-azetidin-3-yl)-phenyl]-benzenesulfonamide]
2940 nM	39.8 nM	–	CCCN1CC(c2ccc(NS(=O)(=O)c3ccc(Br)cc3)cc2)C1 [Example 58, 4-Bromo-N-[4-(1-propyl-azetidin-3-yl)-phenyl]-benzenesulfonamide]
1520 nM	6.41 nM	238	CCCN1CC(c2ccc(NS(=O)(=O)c3ccc([C@@H](C)CF)cc3)cc2)C1 [Example 59, 4-((R)-2-Fluoro-1-methyl-ethyl)-N-[4-(1-propyl-azetidin-3-yl)-phenyl]-benzenesulfonamide]
7780 nM	7.63 nM	1019	CCCN1CC(c2ccc(NS(=O)(=O)c3ccc([C@H](C)CF)cc3)cc2)C1 [Example 60, 4-((S)-2-Fluoro-1-methyl-ethyl)-N-[4-(1-propyl-azetidin-3-yl)-phenyl]-benzenesulfonamide]
3540 nM	25.2 nM	141	CCCN1CC(c2ccc(NS(=O)(=O)c3ccc(CC(F)(F)F)cc3)cc2)C1 [Example 62, N-[4-(1-Propyl-azetidin-3-yl)-phenyl]-4-(2,2,2-trifluoro-ethyl)-benzenesulfonamide]
647 nM	5.75 nM	113	CCCN1CC(c2ccc(NS(=O)(=O)c3ccc(C(C)C(F)(F)F)cc3)cc2)C1 (centres unmarked) [Example 63, N-[4-(1-Propyl-azetidin-3-yl)-phenyl]-4-(2,2,2-trifluoro-1-methyl-ethyl)benzenesulfonamide]
344 nM	2.1 nM	164	CCCN1CC(c2ccc(NS(=O)(=O)c3ccc(C(C)C(F)F)cc3)cc2)C1 (centres unmarked) [Example 64, 4-(2,2-Difluoro-1-methyl-ethyl)-N-[4-(1-propyl-azetidin-3-yl)-phenyl]-benzenesulfonamide]
197 nM	6.79 nM	29	CCCN1CC[C@@H](c2ccc(NS(=O)(=O)c3ccc(-c4csnn4)cc3)cc2)C1 [Example 65, N-[4-((S)-1-Propyl-pyrrolidin-3-yl)-phenyl]-4-[1,2,3]thiadiazol-4-yl-benzenesulfonamide]
3.88 nM	0.35 nM	11	CCCN1CC[C@@H](c2ccc(NS(=O)(=O)c3ccc(N4CCCC4)cc3)cc2)C1 [Example 67, N-[4-((S)-1-Propyl-pyrrolidin-3-yl)-phenyl]-4-pyrrolidin-1-yl-benzenesulfonamide]
142 nM	3 nM	47	CCCN1CC[C@@H](c2ccc(NS(=O)(=O)c3ccc(SC(F)(F)F)cc3)cc2)C1 [Example 68, N-[4-((S)-1-Propyl-pyrrolidin-3-yl)-phenyl]-4-trifluoromethylsulfanyl-benzenesulfonamide]
